A short description of data set [1]: Oral bioavailability in human. The class given is ADME, organism-based. Particulars: in vivo.
For data set [2], the target named is T1, Tyrosine-protein phosphatase non-receptor type 11 (Homo sapiens, UniProt Q06124).
T1 sequence (Q06124 whole entry): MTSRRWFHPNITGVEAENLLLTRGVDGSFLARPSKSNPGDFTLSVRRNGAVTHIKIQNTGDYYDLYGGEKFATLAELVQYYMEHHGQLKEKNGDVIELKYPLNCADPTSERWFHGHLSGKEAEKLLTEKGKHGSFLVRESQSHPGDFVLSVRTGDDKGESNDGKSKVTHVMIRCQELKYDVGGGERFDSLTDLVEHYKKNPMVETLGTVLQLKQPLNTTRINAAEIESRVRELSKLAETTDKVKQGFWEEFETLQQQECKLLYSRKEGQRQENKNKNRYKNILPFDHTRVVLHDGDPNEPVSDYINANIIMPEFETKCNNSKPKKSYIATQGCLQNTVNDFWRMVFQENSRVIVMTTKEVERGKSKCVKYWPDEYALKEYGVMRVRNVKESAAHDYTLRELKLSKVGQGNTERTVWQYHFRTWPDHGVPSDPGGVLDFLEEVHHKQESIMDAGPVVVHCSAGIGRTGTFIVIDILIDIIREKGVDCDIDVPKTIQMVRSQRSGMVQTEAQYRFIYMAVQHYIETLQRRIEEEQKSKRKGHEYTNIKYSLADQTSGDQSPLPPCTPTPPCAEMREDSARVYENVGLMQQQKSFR
The experiment in a line: Inhibition of human SHP2.

In another data set the test system is KYSE-520 cell line. Briefly: Antiproliferative activity against human KYSE520 cells assessed as reduction in cell viability by WST-8 assay.
Data set [3] is described as follows: Oral bioavailability in Sprague-Dawley rat at 10 mg/kg by LC-MS analysis. It counts as ADME, organism-based. Particulars: in vivo.

One may read the bioavailability as dose-corrected exposure relative to a reference, in per cent. Higher therefore signals good availability. One may read the IC50 as the point on the concentration scale where inhibition reaches its midpoint.

Structures are written as SMILES.

As for `CC1(N)CCN(c2cnc(-c3cccc(Cl)c3Cl)c(N)n2)CC1`, the bioavailability in data set [1] amounted to 46%.

`C[C@H]1OCC2(CCN(c3cnc(Sc4ccnc(NC(=O)CCCCCCNC(=O)c5cccnc5)c4Cl)c(N)n3)CC2)[C@H]1N`: the half-maximal inhibitory concentration (IC50) in data set [2] was < 0.01 µM.

Regarding `CC1(N)CCN(c2cnc3c(Sc4ccncc4Cl)n[nH]c3n2)CC1`, the IC50 in the data set on KYSE-520 cell line amounted to 5.73 µM. The bioavailability in data set [3] came to 42.5%.
